Results published in patent US4958010A, “Epipodophyllotoxin glucoside lactam derivatives” (Bristol-Myers Company, priority 1989, dated 1990).
Values after ≈ are worked out from the molar mass of the structure shown. Values joined by “and” are separate entries in the source; they are usually repeats but may differ in a detail not shown here. Equal entries are not always repeated. Structures can show the parent of a compound that is named as a salt.

Experiments:
B16-F10 murine melanoma = experiment: in vitro cytotoxicity assay, B16-F10 murine melanoma; format: cell-based; details: four-fold serial dilution, replicate determinations on separate lines; for IC50: Mus musculus, B16-F10, concentration required to inhibit cell growth by 50%; for IC50 B16-F10: concentration required to inhibit cell growth by 50%
Protocol: (§1) Representative compounds of the present invention were also evaluated in in vitro cytotoxicity assay against various murine and human tumor cell lines. The in vitro cytotoxicity assay involved growing various mammalian tumor cells, including human tumor cells, on microtitre plates employing established tissue culture methods. The concentration of each compound required to inhibit cell growth by 50% (IC50) was then determined by four-fold serial dilution technique. Tumor cells of the following types were employed for each compound tested: B16-F10 murine melanoma; Moser human colon; SW900 human lung; and two human colon tumor cell lines namely HCT-116, and HCT/VP35, the latter being resistant to etoposide (VP). […] The in vitro data may also be evaluated in terms of potency ratio which is defined as the ratio of IC50 against an etoposide-resistant cell-line to IC50 against an etoposide-sensitive cell-line.

HCT-116 = experiment: in vitro cytotoxicity assay, HCT-116 human colon tumor; format: cell-based; details: four-fold serial dilution, replicate determinations on separate lines; for IC50: Homo sapiens, HCT-116, concentration required to inhibit cell growth by 50%; for IC50 HCT-116: concentration required to inhibit cell growth by 50%
Protocol: as §1

HCT/VP35 = experiment: in vitro cytotoxicity assay, HCT/VP35 human colon tumor resistant to etoposide; format: cell-based; details: for IC50: Homo sapiens, HCT/VP35, etoposide-resistant line; for IC50 / IC50 HCT/VP35: concentration required to inhibit cell growth by 50%, four-fold serial dilution, replicate determinations on separate lines; for IC50 HCT/VP35: etoposide-resistant line; for potency ratio IC50 HCT/VP35 : IC50 HCT-116: ratio of IC50 against etoposide-resistant cell line to IC50 against etoposide-sensitive cell line, same experiment
Protocol: as §1

Moser human colon = experiment: in vitro cytotoxicity assay, Moser human colon; format: cell-based; details: concentration required to inhibit cell growth by 50%, four-fold serial dilution, replicate determinations on separate lines; for IC50: Homo sapiens
Protocol: as §1

SW900 human lung = experiment: in vitro cytotoxicity assay, SW900 human lung; format: cell-based; details: four-fold serial dilution, replicate determinations on separate lines; for IC50: Homo sapiens, SW900, concentration required to inhibit cell growth by 50%; for IC50 SW900: concentration required to inhibit cell growth by 50%
Protocol: as §1

P388 leukemia = experiment: antitumor activity against intravenously implanted P388 leukemia in BDF1 female mice; format: in vivo, murine (BDF1 female mice); details: 10^6 P388 cells i.v., drug i.v. on days 5 and 8, 200 mg/kg/dose, 64 days
Protocol: Compound of Example 15 was evaluated against intravenously implanted P388 leukemia (10^6 cells) in BDF1 female mice. The test compound was administered intravenously at various dose levels to groups of six mice on days 5 and 8; the positive control, etoposide, was given intraperitoneally. The experiment lasted 64 days.

[1] = Cancer Chemoth. Rep., 1966, 50:565-571; cited from earlier work

Row | SMILES | IC50 (B16-F10 murine melanoma) | IC50 B16-F10 (B16-F10 murine melanoma) | IC50 (HCT-116) | IC50 HCT-116 (HCT-116) | IC50 (HCT/VP35) | IC50 (Moser human colon) | IC50 Moser (Moser human colon) | IC50 (SW900 human lung) | IC50 SW900 (SW900 human lung) | IC50 HCT/VP35 (HCT/VP35) | potency ratio IC50 HCT/VP35 : IC50 HCT-116 (HCT/VP35) | max. % T/C (P388 leukemia) | antitumor activity in clinical trials [1]
1 | COc1cc([C@@H]2c3cc4c(cc3[C@@H](O[C@@H]3O[C@@H]5CO[C@@H](C)O[C@H]5[C@H](O)[C@H]3O)[C@@H](CO)[C@@H]2C(N)=O)OCO4)cc(OC)c1O (relative stereo) [Example 2, Naphtho[2,3-d]-1,3-dioxole-6-carboxamide, 5,6,7,8-tetrahydro-8-[(4,6-0-ethylidene-β-D-glucopyranosyl)oxy]-5-[(4-hydroxy-3,5-dimethoxy)phenyl]-7-(hydroxymethyl)-, [5Rα,6α,7β,8β(R*)]-] | 70.6 µg/mL (≈ 117 µM) | 93.03 µg/mL (≈ 154 µM) | 78.6 µg/mL (≈ 130 µM) | 96.28 µg/mL (≈ 159 µM) | > 250 µg/mL | 107 µg/mL (≈ 177 µM) | 115.67 µg/mL (≈ 191 µM) | 106 µg/mL (≈ 175 µM) | 120.54 µg/mL (≈ 199 µM) | – | – | – | –
2 | COc1cc([C@@H]2c3cc4c(cc3[C@@H](O[C@@H]3O[C@@H]5CO[C@@H](C)O[C@H]5[C@H](O)[C@H]3O)[C@H]3CN(N=C(C)C)C(=O)[C@H]23)OCO4)cc(OC)c1O (relative stereo) [Example 8, 6H-Pyrrolo[3',4':6,7]naphtho[2,3-d]-1,3-dioxole-6-one, 5,5,a,7,8,8a,9-hexahydro-9-[(4,6-O-ethylidene-β-D-glucopyranosyl)oxy]-5-[(4-hydroxy-3,5-dimethoxy)phenyl]-7-[(2-propylidene)amino]-, [5 R-[5α,5aβ,8aα,9β(R*)]-] | 43.2 µg/mL (≈ 67.3 µM) | 61.29 µg/mL and 74.21 µg/mL | 69.4 µg/mL (≈ 108 µM) | 78.90 µg/mL and 108.89 µg/mL | 103 µg/mL (≈ 160 µM) | – | 91.26 µg/mL and 123.63 µg/mL and > 250 µg/mL | > 250 µg/mL | – | 96.26 µg/mL (≈ 150 µM) | – | – | –
3 | COc1cc([C@@H]2c3cc4c(cc3[C@@H](O[C@@H]3O[C@@H]5CO[C@@H](C)O[C@H]5[C@H](O)[C@H]3O)[C@H]3CN(N=Cc5ccccc5)C(=O)[C@H]23)OCO4)cc(OC)c1O [Example 3, 6H-Pyrrolo[3',4':6,7]naphtho[2,3-d]-1,3-dioxole-6-one, 5,5a,7,8,8a,9-hexahydro-9-[(4,6-O-ethylidene-β-D-glucopyranosyl)oxy]-5-[(4-hydroxy-3,5-dimethoxy)phenyl]-7-[(phenylmethylene)amino][5R-[5α,5aβ,8aα,9β(R*)]-] | 10.3 µg/mL (≈ 15 µM) | 17.80 µg/mL (≈ 25.8 µM) | 23.8 µg/mL (≈ 34.4 µM) | 20.04 µg/mL (≈ 29 µM) | 38.3 µg/mL (≈ 55.5 µM) | 56.4 µg/mL (≈ 81.7 µM) | 73.81 µg/mL (≈ 107 µM) | 36.5 µg/mL (≈ 52.8 µM) | 48.73 µg/mL (≈ 70.6 µM) | 42.37 µg/mL (≈ 61.3 µM) | – | – | –
4 | COc1cc([C@@H]2c3cc4c(cc3[C@@H](O[C@@H]3O[C@@H]5CO[C@@H](C)O[C@H]5[C@H](O)[C@H]3O)[C@H]3CN(NCc5ccccc5)C(=O)[C@H]23)OCO4)cc(OC)c1O [Example 4, 6H-Pyrrolo[3',4':6,7]naphtho[2,3-d]-1,3-dioxole-6-one, 5,5a,7,8,8a,9-hexahydro-9-[(4,6-O-ethylidene-β-D-glucopyranosyl)oxy]-5-[(4-hydroxy-3,5-dimethoxy)phenyl]-7-[(phenylmethyl)amino]-, [5R-[5α,5aβ,8aα,9β(R*)]-] | 73.4 µg/mL (≈ 106 µM) | 95.19 µg/mL (≈ 137 µM) | 105 µg/mL (≈ 151 µM) | 113.88 µg/mL (≈ 164 µM) | > 250 µg/mL | – | 122.94 µg/mL and > 250 µg/mL | > 250 µg/mL | – | – | – | – | –
5 | COc1cc([C@@H]2c3cc4c(cc3[C@@H](O[C@@H]3O[C@@H]5CO[C@@H](C)O[C@H]5[C@H](O)[C@H]3O)[C@H]3CNC(=O)[C@H]23)OCO4)cc(OC)c1O [Example 5, 6H-Pyrrolo[3',4':6,7]naphtho[2,3-d]-1,3-dioxole-6-one,5,5a,7,8,8a,9-hexahydro-9-[(4,6-O-ethylidene-β-D-glucopyranosyl)oxy]-5-[(4-hydroxy-3,5-dimethoxy)phenyl]-, [5R-[5α,5aα,8aα, 9β(R*)]-] | – | 27.92 µg/mL and 72.27 µg/mL | 56.1 µg/mL (≈ 95.5 µM) | 66.52 µg/mL (≈ 113 µM) | 103 µg/mL (≈ 175 µM) | 81.1 µg/mL (≈ 138 µM) | 102.51 µg/mL (≈ 174 µM) | 107 µg/mL (≈ 183 µM) | 123.53 µg/mL (≈ 210 µM) | 111.78 µg/mL (≈ 190 µM) | – | – | –
6 | COc1cc([C@@H]2c3cc4c(cc3[C@@H](O[C@@H]3O[C@@H]5CO[C@@H](C)O[C@H]5[C@H](O)[C@H]3O)[C@H]3CN(N=Cc5ccc([N+](=O)[O-])cc5)C(=O)[C@H]23)OCO4)cc(OC)c1O [Example 6, 6H-Pyrrolo[3',4':6,7]naphtho[2,3-d]-1,3-dioxole-6-one, 5,5a,7,8,8a,9-hexahydro-9-[(4,6-O-ethylidene-δ-D-glucopyranosyl)oxy]-5-[(4-hydroxy-3,5-dimethoxy)phenyl]-7-[[(4-nitrophenyl)methylene]amino], [5R-[5α,5aβ,8aα,9β(R*)]-] | – | 7.73 µg/mL and 16.11 µg/mL | 83.6 µg/mL (≈ 114 µM) | 60.66 µg/mL (≈ 82.5 µM) | > 250 µg/mL | > 250 µg/mL | – | > 250 µg/mL | – | – | – | – | –
7 | CCCCCCCC=NN1C[C@H]2[C@H](C1=O)[C@H](c1cc(OC)c(O)c(OC)c1)c1cc3c(cc1[C@H]2O[C@@H]1O[C@@H]2CO[C@@H](C)O[C@H]2[C@H](O)[C@H]1O)OCO3 [Example 9, 6H-Pyrrolo[3',4':6,7]naphtho[2,3-d]-1,3-dioxole-6-one, 5,5a,7,8,8a,9-hexahydro-9-[(4,6-O-ethylidene-β-D-glucopyranosyl)oxy]-5-[(4-hydroxy-3,5-dimethoxy)phenyl]-7-[(octylidene)amino]-, [5R-[5α,5aβ,8aα,9β(R*)]-] | 6.64 µg/mL (≈ 9.32 µM) | 6.70 µg/mL and 10.21 µg/mL | – | 3.39 µg/mL and 4.68 µg/mL and 16.63 µg/mL | – | 11.5 µg/mL (≈ 16.1 µM) | 15.09 µg/mL and 15.98 µg/mL | – | 21.21 µg/mL and 52.18 µg/mL and 95.53 µg/mL | 6.85 µg/mL and 23.65 µg/mL | – | – | –
8 | CCCCCCCC(=O)Oc1c(OC)cc([C@@H]2c3cc4c(cc3[C@@H](O[C@@H]3O[C@@H]5CO[C@@H](C)O[C@H]5[C@H](O)[C@H]3O)[C@H]3CN(N=Cc5ccccc5)C(=O)[C@H]23)OCO4)cc1OC [Example 10, 6H-Pyrrolo[3',4':6,7]naphtho[2,3-d]-1,3-dioxole-6-one, 5,5a,7,8,8a,9-hexahydro-9-[(4,6-O-ethylidene-β-D-glucopyranosyl)oxy]-5-[(3,5-dimethoxy-4-octanoyloxy)phenyl]-7-[(phenylmethylene)amino]-, [5R-[5α,5aβ,8aα, 9β(R*)]-] | 23.6 µg/mL (≈ 29 µM) | 16.76 µg/mL (≈ 20.5 µM) | 17.3 µg/mL (≈ 21.1 µM) | 16.05 µg/mL (≈ 19.6 µM) | 25.6 µg/mL (≈ 31.3 µM) | 25.6 µg/mL (≈ 31.3 µM) | 16.38 µg/mL (≈ 20.1 µM) | 21.2 µg/mL (≈ 26 µM) | 19.82 µg/mL (≈ 24.3 µM) | 13.50 µg/mL (≈ 16.5 µM) | 1 | – | –
9 | CCCCCCCC(=O)Oc1c(OC)cc([C@@H]2c3cc4c(cc3[C@@H](O[C@@H]3O[C@@H]5CO[C@@H](C)O[C@H]5[C@H](O)[C@H]3O)[C@H]3CNC(=O)[C@H]23)OCO4)cc1OC [Example 11, 6H-Pyrrolo[3',4':6,7]naphtho[2,3-d]-1,3-dioxole-6-one, 5,5a,7,8,8a,9-hexahydro-9[(4,6-O-ethylidene-β-D-glucopyranosyl)oxy]-5-[(3,5-dimethoxy-4-octanoyloxy)phenyl], [5R-[5α,5aβ,8aα,9β(R*)]-] | 21 µg/mL (≈ 29.4 µM) | 20.69 µg/mL (≈ 29 µM) | 17.3 µg/mL (≈ 24.2 µM) | 18.33 µg/mL (≈ 25.7 µM) | 18.7 µg/mL (≈ 26.2 µM) | 20.2 µg/mL (≈ 28.3 µM) | 25.92 µg/mL (≈ 36.3 µM) | 12.3 µg/mL (≈ 17.3 µM) | 12.48 µg/mL (≈ 17.5 µM) | 25.22 µg/mL (≈ 35.3 µM) | 1 | – | –
10 | COc1cc([C@@H]2c3cc4c(cc3[C@@H](O[C@@H]3O[C@@H]5CO[C@@H](C)O[C@H]5[C@H](O)[C@H]3O)[C@H]3CNC(=O)[C@H]23)OCO4)cc(OC)c1OP(=O)(O)O [Example 15, 6H-Pyrrolo[3',4':6,7]naphtho[2,3-d]-1,3-dioxole-6-one, 5,5a,7,8,8a,9-hexahydro-9-[(4,6-O-ethylidene-β-Dglucopyranosyl)oxy]-5-[(3,5-dimethoxy-4-phosphonoxy)phenyl]-1, disodium salt, [5R-[5α,5aβ,8aα,9β(R*)]-] | – | – | – | – | – | – | – | – | – | – | – | 235 % T/C | –
11 | CCNNC(=O)C1C(c2cc(OC)c(OC)c(OC)c2)c2cc3c(cc2C(O)C1CO)OCO3 (centres unmarked) [ethyl hydrazide of podophyllotoxin (V), ethyl hydrazide of podophyllotoxin] | – | – | – | – | – | – | – | – | – | – | – | – | minimal antitumor activity
